Key:
CDK2/Cyclin E = CDK2/Cyclin E (Homo sapiens, UniProt P24941); experiment: CDK2/Cyclin E biochemical phosphorylation assay (Caliper mobility shift); conditions: apparent IC50; 1.0 mM ATP or ATP Km; 1.25 nM enzyme; 25° C.; read-out: CDK2/cyclin E1 IC50
Procedure, shortened: (§1)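 Caliper electrophoretic separation of substrate and phosphopeptide gave apparent IC50s. Enzymes: CDK1/Cyclin B1 GST-tag 1.5 nM, CDK2/Cyclin E 1.25 nM; ATP 1.0 mM or at Km; 7.5 µM FL-peptide; pH 7.5 HEPES buffer, 1% DMSO; room temperature until 10–20% phosphorylated, then EDTA quench.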

CDK1/Cyclin B1, GST-tag = biological target: T1, CDK1/Cyclin B1, GST-tag (Homo sapiens, UniProt P06493); experiment: CDK1/Cyclin B1 biochemical phosphorylation assay (Caliper mobility shift); conditions: apparent IC50; 1.0 mM ATP or ATP Km; 1.5 nM enzyme; 25° C.
T1 construct: GST
T1 sequence (P06493 whole entry): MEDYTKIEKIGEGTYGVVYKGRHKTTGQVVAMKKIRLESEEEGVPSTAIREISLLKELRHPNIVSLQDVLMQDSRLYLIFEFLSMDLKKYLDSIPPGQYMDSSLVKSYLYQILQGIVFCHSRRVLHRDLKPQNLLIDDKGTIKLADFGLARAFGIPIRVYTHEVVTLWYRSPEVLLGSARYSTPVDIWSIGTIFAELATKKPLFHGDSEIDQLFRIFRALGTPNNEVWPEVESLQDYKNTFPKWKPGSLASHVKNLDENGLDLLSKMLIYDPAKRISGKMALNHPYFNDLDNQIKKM
T1 sequence (P14635 whole entry partner): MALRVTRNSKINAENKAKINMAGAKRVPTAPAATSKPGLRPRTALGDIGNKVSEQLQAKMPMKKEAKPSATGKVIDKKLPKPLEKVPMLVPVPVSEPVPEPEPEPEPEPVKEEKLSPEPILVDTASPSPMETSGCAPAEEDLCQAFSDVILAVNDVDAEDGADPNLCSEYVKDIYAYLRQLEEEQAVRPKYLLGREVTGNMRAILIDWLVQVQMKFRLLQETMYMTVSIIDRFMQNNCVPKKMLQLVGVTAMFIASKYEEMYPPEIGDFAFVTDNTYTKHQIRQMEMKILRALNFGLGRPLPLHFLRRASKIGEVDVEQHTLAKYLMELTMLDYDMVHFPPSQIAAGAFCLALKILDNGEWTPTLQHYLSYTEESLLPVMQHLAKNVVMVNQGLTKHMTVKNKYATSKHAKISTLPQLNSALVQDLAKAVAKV
Procedure, shortened: as §1

IC50 (CDK2/Cyclin E) [nM] | IC50 (CDK1/Cyclin B1, GST-tag) [nM] | SMILES
30 to 100 | ≥ 500 | N#CC1(Cn2ncc3ncc(Nc4cc(OC(F)F)[nH]n4)nc32)CCOCC1 [Example 115, 4-((6-((5-(difluoromethoxy)-1H-pyrazol-3-yl)amino)-1H-pyrazolo[3,4-b]pyrazin-1-yl)methyl)tetrahydro-2H-pyran-4-carbonitrile]
≤ 10 | ≥ 500 | FC(F)Oc1cc(Nc2cnc3cnn(CC45CC(F)(C4)C5)c3n2)n[nH]1 [Example 116, N-(5-(difluoromethoxy)-1H-pyrazol-3-yl)-1-((3-fluorobicyclo[1.1.1]pentan-1-yl)methyl)-1H-pyrazolo[3,4-b]pyrazin-6-amine]
≤ 10 | 100 to 500 | Fc1nn(CC2CCOCC2)c2nc(Nc3cc(OC(F)F)[nH]n3)cnc12 [Example 117, N-(5-(difluoromethoxy)-1H-pyrazol-3-yl)-3-fluoro-1-((tetrahydro-2H-pyran-4-yl)methyl)-1H-pyrazolo[3,4-b]pyrazin-6-amine]
≤ 10 | 100 to 500 | FC(F)Oc1cc(Nc2cnc3cnn(CC45CCC(CC4)OC5)c3n2)n[nH]1 [Example 118, 1-((2-oxabicyclo[2.2.2]octan-4-yl)methyl)-N-(5-(difluoromethoxy)-1H-pyrazol-3-yl)-1H-pyrazolo[3,4-b]pyrazin-6-amine]
≤ 10 | ≥ 500 | CC1(Cn2ncc3ncc(Nc4cc(OC(F)F)[nH]n4)nc32)COC1 [Example 119, N-(5-(difluoromethoxy)-1H-pyrazol-3-yl)-1-((3-methyloxetan-3-yl)methyl)-1H-pyrazolo[3,4-b]pyrazin-6-amine]
≤ 10 | ≥ 500 | Fc1nn(Cc2cccnc2)c2nc(Nc3cc(OC(F)F)[nH]n3)cnc12 [Example 120, N-(5-(difluoromethoxy)-1H-pyrazol-3-yl)-3-fluoro-1-(pyridin-3-ylmethyl)-1H-pyrazolo[3,4-b]pyrazin-6-amine]
30 to 100 | ≥ 500 | FC(F)Oc1cc(Nc2cnc3cnn(CC4(C(F)(F)F)CCOCC4)c3n2)n[nH]1 [Example 121, N-(5-(difluoromethoxy)-1H-pyrazol-3-yl)-1-((4-(trifluoromethyl)tetrahydro-2H-pyran-4-yl)methyl)-1H-pyrazolo[3,4-b]pyrazin-6-amine]
20 to 30 | ≥ 500 | FC(F)Oc1cc(Nc2cnc3cnn(CC4(C(F)F)CCOCC4)c3n2)n[nH]1 [Example 122, N-(5-(difluoromethoxy)-1H-pyrazol-3-yl)-1-((4-(difluoromethyl)tetrahydro-2H-pyran-4-yl)methyl)-1H-pyrazolo[3,4-b]pyrazin-6-amine]
≤ 10 | ≥ 500 | COc1cc(Nc2cnc3c(F)nn([C@@H](C)C4CCOCC4)c3n2)n[nH]1 [Example 123, (S)-3-fluoro-N-(5-methoxy-1H-pyrazol-3-yl)-1-(1-(tetrahydro-2H-pyran-4-yl)ethyl)-1H-pyrazolo[3,4-b]pyrazin-6-amine]
≤ 10 | 100 to 500 | C[C@@H](C1CCOCC1)n1nc(F)c2ncc(Nc3cc(OC(F)F)[nH]n3)nc21 [Example 124, (S)-N-(5-(difluoromethoxy)-1H-pyrazol-3-yl)-3-fluoro-1-(1-(tetrahydro-2H-pyran-4-yl)ethyl)-1H-pyrazolo[3,4-b]pyrazin-6-amine]
20 to 30 | ≥ 500 | OC1(Cn2ncc3ncc(Nc4cc(OC(F)F)[nH]n4)nc32)CCC1 [Example 125, 1-((6-((5-(difluoromethoxy)-1H-pyrazol-3-yl)amino)-1H-pyrazolo[3,4-b]pyrazin-1-yl)methyl)cyclobutan-1-ol]
≤ 10 | < 100 | FC(F)Oc1cc(Nc2cnc3cnn(C[C@H]4C[C@@H]5[C@H](C4)C5(F)F)c3n2)n[nH]1 [Example 126, 1-(((1R,3r,5S)-6,6-difluorobicyclo[3.1.0]hexan-3-yl)methyl)-N-(5-(difluoromethoxy)-1H-pyrazol-3-yl)-1H-pyrazolo[3,4-b]pyrazin-6-amine]
20 to 30 | ≥ 500 | CC(C)(C1CCOCC1)n1ncc2ncc(Nc3cc(OC(F)F)[nH]n3)nc21 [Example 127, N-(5-(difluoromethoxy)-1H-pyrazol-3-yl)-1-(2-(tetrahydro-2H-pyran-4-yl)propan-2-yl)-1H-pyrazolo[3,4-b]pyrazin-6-amine]
30 to 100 | ≥ 500 | FC(F)Oc1cc(Nc2cnc3cnn(Cc4cccc5[nH]ncc45)c3n2)n[nH]1 [Example 128, 1-((1H-indazol-4-yl)methyl)-N-(5-(difluoromethoxy)-1H-pyrazol-3-yl)-1H-pyrazolo[3,4-b]pyrazin-6-amine]
≤ 10 | 100 to 500 | FC(F)Oc1cc(Nc2cnc3cnn(CCc4cn[nH]c4)c3n2)n[nH]1 [Example 129, 1-(2-(1H-pyrazol-4-yl)ethyl)-N-(5-(difluoromethoxy)-1H-pyrazol-3-yl)-1H-pyrazolo[3,4-b]pyrazin-6-amine]
≤ 10 | 100 to 500 | FC(F)Oc1cc(Nc2cnc3cnn(CCc4ccncc4)c3n2)n[nH]1 [Example 130, N-(5-(difluoromethoxy)-1H-pyrazol-3-yl)-1-(2-(pyridin-4-yl)ethyl)-1H-pyrazolo[3,4-b]pyrazin-6-amine]

IC50 (CDK2/Cyclin E) [nM] | IC50 (CDK1/Cyclin B1, GST-tag) [nM] | SMILES
30 to 100 | ≥ 500 | Cn1cncc1Cn1ncc2ncc(Nc3cc(OC(F)F)[nH]n3)nc21 [Example 131, N-(5-(difluoromethoxy)-1H-pyrazol-3-yl)-1-((1-methyl-1H-imidazol-5-yl)methyl)-1H-pyrazolo[3,4-b]pyrazin-6-amine]
30 to 100 | ≥ 500 | N#CCC1(Cn2ncc3ncc(Nc4cc(OC(F)F)[nH]n4)nc32)CC1 [Example 132, 2-(1-((6-((5-(difluoromethoxy)-1H-pyrazol-3-yl)amino)-1H-pyrazolo[3,4-b]pyrazin-1-yl)methyl)cyclopropyl)acetonitrile]
20 to 30 | ≥ 500 | COc1cc(Nc2cnc3cnn(CC4(C)COC4)c3n2)n[nH]1 [Example 133, N-(5-methoxy-1H-pyrazol-3-yl)-1-((3-methyloxetan-3-yl)methyl)-1H-pyrazolo[3,4-b]pyrazin-6-amine]
10 to 20 | ≥ 500 | FC(F)Oc1cc(Nc2cnc3cnn(Cc4ccno4)c3n2)n[nH]1 [Example 134, N-(5-(difluoromethoxy)-1H-pyrazol-3-yl)-1-(isoxazol-5-ylmethyl)-1H-pyrazolo[3,4-b]pyrazin-6-amine]
10 to 20 | ≥ 500 | COc1cc(Nc2cnc3cnn(Cc4cccnc4)c3n2)n[nH]1 [Example 135, N-(5-methoxy-1H-pyrazol-3-yl)-1-(pyridin-3-ylmethyl)-1H-pyrazolo[3,4-b]pyrazin-6-amine]
10 to 20 | ≥ 500 | COc1cc(Nc2cnc3cnn(CC45CCC(CC4)OC5)c3n2)n[nH]1 [Example 136, 1-((2-oxabicyclo[2.2.2]octan-4-yl)methyl)-N-(5-methoxy-1H-pyrazol-3-yl)-1H-pyrazolo[3,4-b]pyrazin-6-amine]
≤ 10 | 100 to 500 | COc1cc(Nc2cnc3cnn(Cc4cccnc4F)c3n2)n[nH]1 [Example 137, 1-((2-fluoropyridin-3-yl)methyl)-N-(5-methoxy-1H-pyrazol-3-yl)-1H-pyrazolo[3,4-b]pyrazin-6-amine]
20 to 30 | ≥ 500 | COc1cc(Nc2cnc3cnn(CC4C5COCC54)c3n2)n[nH]1 (centres unmarked) [Example 138, 1-((3-oxabicyclo[3.1.0]hexan-6-yl)methyl)-N-(5-methoxy-1H-pyrazol-3-yl)-1H-pyrazolo[3,4-b]pyrazin-6-amine]
10 to 20 | ≥ 500 | COc1cc(Nc2cnc3cnn(C[C@@H]4CCCOC4)c3n2)n[nH]1 [Example 139, (S)-N-(5-methoxy-1H-pyrazol-3-yl)-1-((tetrahydro-2H-pyran-3-yl)methyl)-1H-pyrazolo[3,4-b]pyrazin-6-amine]
10 to 20 | ≥ 500 | COc1cc(Nc2cnc3cnn(C[C@H]4CCCOC4)c3n2)n[nH]1 [Example 140, (R)-N-(5-methoxy-1H-pyrazol-3-yl)-1-((tetrahydro-2H-pyran-3-yl)methyl)-1H-pyrazolo[3,4-b]pyrazin-6-amine]
30 to 100 | ≥ 500 | C[C@@H](CO)Cn1ncc2ncc(Nc3cc(OC(F)F)[nH]n3)nc21 [Example 198, (R)-3-(6-((5-(difluoromethoxy)-1H-pyrazol-3-yl)amino)-1H-pyrazolo[3,4-b]pyrazin-1-yl)-2-methylpropan-1-ol]
30 to 100 | ≥ 500 | C[C@H](CO)Cn1ncc2ncc(Nc3cc(OC(F)F)[nH]n3)nc21 [Example 199, (S)-3-(6-((5-(difluoromethoxy)-1H-pyrazol-3-yl)amino)-1H-pyrazolo[3,4-b]pyrazin-1-yl)-2-methylpropan-1-ol]
20 to 30 | ≥ 500 | FC(F)Oc1cc(Nc2cnc3cnn(C[C@H]4CCCNC4)c3n2)n[nH]1 [Example 200, (S)—N-(5-(difluoromethoxy)-1H-pyrazol-3-yl)-1-(piperidin-3-ylmethyl)-1H-pyrazolo[3,4-b]pyrazin-6-amine]
30 to 100 | ≥ 500 | OC[C@@H](c1ccccc1)n1ncc2ncc(Nc3cc(OC(F)F)[nH]n3)nc21 [Example 203, (R)-2-(6-((5-(difluoromethoxy)-1H-pyrazol-3-yl)amino)-1H-pyrazolo[3,4-b]pyrazin-1-yl)-2-phenylethan-1-ol]
20 to 30 | ≥ 500 | OC[C@@H](c1cccnc1)n1ncc2ncc(Nc3cc(OC(F)F)[nH]n3)nc21 [Example 204, (R)-2-(6-((5-(difluoromethoxy)-1H-pyrazol-3-yl)amino)-1H-pyrazolo[3,4-b]pyrazin-1-yl)-2-(pyridin-3-yl)ethan-1-ol]
